According to article PMC3914891, “Pentacyclic Nitrofurans with In Vivo Efficacy and Activity against Nonreplicating Mycobacterium tuberculosis” (PLoS ONE, 2014):
Values after ≈ are worked out from the molar mass of the structure shown. Like-named read-outs stand apart in the source and are kept apart here. Marks after values point to notes of the source that are not given here.

Columns and labels:
M. tuberculosis = test: MIC determination, microbroth dilution, M. tuberculosis; assay type: cell-based, Mycobacterium tuberculosis; details: for MIC: Mycobacterium tuberculosis
[1] = test system: M. abscessus (ATCC 19977); test: MIC, non-tuberculosis mycobacteria: M. abscessus; assay type: cell-based; details: Mycobacteroides abscessus, ATCC19977, 72 h; broth dilution, visual inspection, 3 days; range of at least two independent experiments; read-out: Minimum Inhibitory Concentration, M. abscessus
M. avium (ATCC 25291) = test: MIC, non-tuberculosis mycobacteria: M. avium; assay type: cell-based; details: Mycobacterium avium, ATCC25291, 168 h; broth dilution, visual inspection, 7 days; read-out: Minimum Inhibitory Concentration, M. avium
M. kansasii (ATCC 12478) = test: MIC, non-tuberculosis mycobacteria: M. kansasii; assay type: cell-based; details: Mycobacterium kansasii, ATCC12478, 168 h; broth dilution, visual inspection, 7 days; read-out: Minimum Inhibitory Concentration, M. kansasii
M. fortuitum (ATCC 6841) = test: MIC, non-tuberculosis mycobacteria: M. fortuitum; assay type: cell-based; details: Mycolicibacterium fortuitum, ATCC6841, 72 h; broth dilution, visual inspection, 3 days; read-out: Minimum Inhibitory Concentration, M. fortuitum
M. tuberculosis H37Rv = test: Minimum bactericidal concentration determination; assay type: cell-based, Mycobacterium tuberculosis
[2] = test system: hypoxic M. tuberculosis strain H37Rv; test: NRP bacteria under hypoxia (rapid anaerobic dormancy model); assay type: cell-based, Mycobacterium tuberculosis
[3] = test system: M. tuberculosis strain H37Rv (mid-log and nutrient-starved); test: Nutrient starvation model of nonreplicating persisters; assay type: cell-based, Mycobacterium tuberculosis
H37Rv-wt = test: microbe, parasite or virus in culture; assay type: cell-based, M. tuberculosis; details: Mycobacterium tuberculosis
[4] = test system: Staphylococcus aureus (ATCC 29213); test: MIC, spectrum of activity: S.a.; assay type: cell-based; details: ATCC29213, read-out: Minimum Inhibitory Concentration, S.a
[5] = test system: Staphylococcus aureus (NRS70); test: MIC, spectrum of activity: MRSA; assay type: cell-based; details: read-out: Minimum Inhibitory Concentration, MRSA
[6] = test system: Streptococcus pyogenes (ATCC 700294); test: MIC, spectrum of activity: S.py; assay type: cell-based; details: ATCC700294, read-out: Minimum Inhibitory Concentration, S. Py.
[7] = test system: Streptococcus pneumoniae (R6); test: MIC, spectrum of activity: S.pn; assay type: cell-based; details: read-out: Minimum Inhibitory Concentration, S. Pn.
[8] = test system: Enterococcus faecalis (ATCC 33186); test: MIC, spectrum of activity: E.f.; assay type: cell-based; details: ATCC33186, read-out: Minimum Inhibitory Concentration, E.f.
[9] = test system: Bacillus anthracis sterne 34F2; test: microbe, parasite or virus in culture; assay type: cell-based; details: STERNE34F2, read-out: Minimum Inhibitory Concentration, B.a.
[10] = test system: Burkholderia cepacia (ATCC 25416); test: MIC, spectrum of activity: B.c.; assay type: cell-based; details: ATCC25416, read-out: Minimum Inhibitory Concentration, B.c.
[11] = test system: Stenotrophomonas maltophilia (ATCC 13637); test: MIC, spectrum of activity: S.m.; assay type: cell-based; details: ATCC13637, read-out: Minimum Inhibitory Concentration, S.m.
[12] = test system: Escherichia coli (ATCC 700926); test: MIC, spectrum of activity: E.c.; assay type: cell-based; details: ATCC700926, read-out: Minimum Inhibitory Concentration, E.c.
E. coli K12 ∆tolC = assay type: cell-based; details: E. coli K12 ∆tolC (efflux pump deficient)
[13] = test system: Proteus mirabilis(ATCC 25933); test: MIC, spectrum of activity: Proteus mirabilis; assay type: cell-based; details: ATCC25933
[14] = test system: Proteus vulgaris (ATCC 33420); test: MIC, spectrum of activity: Proteus vulgaris; assay type: cell-based; details: ATCC33420
[15] = test system: Klebsiella pneumoniae (ATCC 33495); test: MIC, spectrum of activity: Klebsiella pneumoniae; assay type: cell-based; details: ATCC33495
[16] = test system: Acinetobacter baumannii (ATCC 19606); test: MIC, spectrum of activity: Acinetobacter baumannii; assay type: cell-based; details: ATCC19606
[17] = test system: Pseudomonas aeruginosa (PA01); test: microbe, parasite or virus in culture; assay type: cell-based
M. tuberculosis Erdman = details: for Log10CFU Reduction (SEM), lungs / Log10CFU Reduction (SEM), spleen: vs untreated
in vitro = details: mouse, microsomes
[18] = cited from earlier work
[19] = mouse, plasma; cited from earlier work
[20] = rat, in vivo, cited from earlier work
[21] = In vitro cytotoxicity against Vero cells; details: African green monkey, Vero cells (kidney epithelial cells, ATCC CCL-81)
Vero cells = test: In vitro cytotoxicity against Vero cells
[22] = group 1: 9a 300 mg/kg QD oral, 9 days, in 0.5% methylcellulose in DI-H2O
[23] = group 2: 9a 300 mg/kg QD oral, 9 days, in 30% Captisol in DI-H2O
[24] = group 3: 9a 300 mg/kg QD oral, 9 days, in 10% Vitamin E TPGS in DI-H2O
[25] = group 4: 9a 300 mg/kg QD oral, 9 days, in 0.5% Tween 80 in DI-H2O
[26] = group 5: 9a 300 mg/kg QD oral, 9 days, in 20% cyclodextrin in DI-H2O
[27] = group 6: 9a 300 mg/kg QD oral, 9 days, in cold PEG (50:35:15 H2O:PEG300:PG)

With `O=[N+]([O-])c1ccc(C2=NOC(c3ccc(N4CCC(Oc5ccc(OC(F)(F)F)cc5)CC4)cc3)C2)o1` (stereo not shown) [Compound 9a, 3-(5-Nitrofuran-2-yl)-5-(4-(4-(4-(trifluoromethoxy)phenoxy)piperidin-1-yl)phenyl)-4,5-dihydroisoxazole] the “fold more potent than PA-824 (MIC)” value (M. tuberculosis; M. tuberculosis MIC compared with PA-824) was 20 fold, the MIC (M. tuberculosis; 168 h, read-out: M. tb. MIC) was 0.024 µg/mL and the MIC (M. tuberculosis; M. tuberculosis, […], read-out: MIC) was 0.046 µM. The MIC [1] was 12.5 µg/mL (≈ 24.2 µM), the MIC (M. avium (ATCC 25291)) was 200 µg/mL (≈ 387 µM) and the MIC (M. kansasii (ATCC 12478)) was 3.13 to 6.25 µg/mL (≈ 6.05 to 12.1 µM). For the same compound, the MIC (M. fortuitum (ATCC 6841)) was 6.25 to 12.5 µg/mL (≈ 12.1 to 24.2 µM), the MBC (M. tuberculosis H37Rv) was 3.13–6.25 and the Classification (M. tuberculosis H37Rv; cidal or static from MBC versus MIC) was “Static (static (MBC/MIC >4))”. For the same compound, the “% Growth vs. Control” value [2] was less than 0.1%, the “killing of hypoxic bacilli” value ([2]; 10 µg/mL, NRP-2 bacilli) was greater than 99.9% and the “reduction in viability (killing) of actively growing culture” value [3] was 80%. For the same compound, the “reduction in viability of nutrient starved bacilli” value [3] was 80%, the MIC (H37Rv-wt) was 0.025 µg/mL (≈ 0.0483 µM) and the MIC [4] was 50 µg/mL (≈ 96.6 µM). For the same compound, the MIC [5] was 50 µg/mL (≈ 96.6 µM), the MIC [6] was 200 µg/mL (≈ 387 µM) and the MIC [7] was 100 µg/mL (≈ 193 µM). It also gave an MIC [8] greater than 200 µg/mL, an MIC [9] of 12.5 µg/mL (≈ 24.2 µM) and an MIC [10] of 50 µg/mL (≈ 96.6 µM). The MIC [11] was 25 µg/mL (≈ 48.3 µM), the MIC [12] was greater than 200 µg/mL and the “Minimum Inhibitory Concentration, E.c. ΔtolC” value (E. coli K12 ∆tolC) was 50 µg/mL. It also gave an MIC [13] greater than 200 µg/mL, an MIC [14] greater than 200 µg/mL and an MIC [15] greater than 200 µg/mL. For the same compound, the MIC [16] was greater than 200 µg/mL, the MIC [17] was greater than 200 µg/mL and the “reduction of bacterial load in lungs” value (M. tuberculosis Erdman; GKO mice, 300 mg/kg oral daily, 9 days, across formulations) was 91–97%. The “reduction in bacillary load, lungs and spleens” value (M. tuberculosis Erdman; GKO mice, after 9 days of treatment) was greater than 90%, the tolerability (M. tuberculosis Erdman; GKO mice, daily oral administration at 300 mg/kg, 9 days, each of six formulations) was “well tolerated” and the “Log10CFU Reduction (SEM), lungs” value (M. tuberculosis Erdman; [22]) was 1.06 (0.18) Log10CFU. For the same compound, the “Log10CFU Reduction (SEM), lungs” value (M. tuberculosis Erdman; [23]) was 1.30 (0.20) Log10CFU, the “Log10CFU Reduction (SEM), lungs” value (M. tuberculosis Erdman; [24]) was 1.47 (0.18) Log10CFU and the “Log10CFU Reduction (SEM), lungs” value (M. tuberculosis Erdman; [25]) was 1.38 (0.16) Log10CFU. The “Log10CFU Reduction (SEM), lungs” value (M. tuberculosis Erdman; [26]) was 1.08 (0.15) Log10CFU, the “Log10CFU Reduction (SEM), lungs” value (M. tuberculosis Erdman; [27]) was 1.10 (0.21) Log10CFU and the “Log10CFU (SEM), lungs” value (M. tuberculosis Erdman; [22]) was 7.01 (0.11) Log10CFU. For the same compound, the “Log10CFU (SEM), lungs” value (M. tuberculosis Erdman; [23]) was 6.77 (0.14) Log10CFU, the “Log10CFU (SEM), lungs” value (M. tuberculosis Erdman; [24]) was 6.61 (0.11) Log10CFU and the “Log10CFU (SEM), lungs” value (M. tuberculosis Erdman; [25]) was 6.69 (0.07) Log10CFU. The “Log10CFU (SEM), lungs” value (M. tuberculosis Erdman; [26]) was 6.99 (0.06) Log10CFU, the “Log10CFU (SEM), lungs” value (M. tuberculosis Erdman; [27]) was 6.99 (0.15) Log10CFU and the “Log10CFU Reduction (SEM), spleen” value (M. tuberculosis Erdman; [22]) was 0.95 (0.18) Log10CFU. For the same compound, the “Log10CFU Reduction (SEM), spleen” value (M. tuberculosis Erdman; [23]) was 1.48 (0.17) Log10CFU, the “Log10CFU Reduction (SEM), spleen” value (M. tuberculosis Erdman; [24]) was 1.77 (0.27) Log10CFU and the “Log10CFU Reduction (SEM), spleen” value (M. tuberculosis Erdman; [25]) was 1.17 (0.18) Log10CFU. The “Log10CFU Reduction (SEM), spleen” value (M. tuberculosis Erdman; [26]) was 1.44 (0.16) Log10CFU, the “Log10CFU Reduction (SEM), spleen” value (M. tuberculosis Erdman; [27]) was 1.03 (0.20) Log10CFU and the “Log10CFU (SEM), spleen” value (M. tuberculosis Erdman; [22]) was 6.25 (0.11) Log10CFU. For the same compound, the “Log10CFU (SEM), spleen” value (M. tuberculosis Erdman; [23]) was 5.72 (0.09) Log10CFU, the “Log10CFU (SEM), spleen” value (M. tuberculosis Erdman; [24]) was 5.43 (0.23) Log10CFU and the “Log10CFU (SEM), spleen” value (M. tuberculosis Erdman; [25]) was 6.03 (0.12) Log10CFU. For the same compound, the “Log10CFU (SEM), spleen” value (M. tuberculosis Erdman; [26]) was 5.76 (0.08) Log10CFU, the “Log10CFU (SEM), spleen” value (M. tuberculosis Erdman; [27]) was 6.17 (0.14) Log10CFU and the half-life (in vitro) was 5.06 h. The “Solubility (pH 7.4)” value [18] was 2.7 ^h µg/mL, the “Plasma Protein binding” value [19] was 99.9 ^h % and the Vd ([20]; iv, 10 mg/kg) was 6.72 (1.10) L/kg. For the same compound, the “fe (fraction excreted unchanged in urine)” value ([20]; iv, 10 mg/kg) was 0.04 (0.01) %, the “AUC0-∞” value ([20]; po, 100 mg/kg) was 10.2 (9.1) mg h/L and the “Cmin,24 h” value ([20]; po, 100 mg/kg) was 0.17 (0.16) mg/L. The Cmax [20] was 850 ng/mL, the “Cmin,24 h” value [20] was 0.17 µg/mL and the IC50 [21] was 19.4 µg/mL (≈ 37.5 µM). The “Selective Index (Cytox/MIC)” value (Vero cells) was 808.
